Read-outs that look alike come from different tables or passages of the source.
Assays:
S. mansoni adult worms = experiment: In vitro antischistosomal assay on adult worms; format: cell-based, Schistosoma mansoni; settings: for Activity against 49-day-old S. mansoni worms at 50 µM: adult worms, initial in vitro trial, 72 h; for EC50: Schistosoma mansoni, based on mortality, after 72 h, 95% confidence interval in square brackets
Description: The antischistosomal assay was performed according to the methodology previously described[16],[19],[20]. Briefly, […], were incubated in flat bottom 24-well plates (Corning, New York, NY, USA) in RPMI 1640 culture medium (Vitrocell, Campinas, SP, Brazil) supplemented with 5% inactivated fetal calf serum, antibiotics (100 U/mL penicillin and 100 μg/mL streptomycin), and buffered with HEPES 25 mM (Sigma-Aldrich, St. Louis, MO, USA). Compounds were dissolved in dimethyl sulfoxide (DMSO at a final concentration of 0.5% v/v) and tested at 50 μM using PZQ 2 μM and DMSO 0.5% as positive and negative controls, respectively. Parasites were kept for 72 h (37 °C, 5% CO2, Panasonic, Osaka, Japan) and their viability was assessed using a Motic AE2000 inverted microscope (Vancouver, Canada)[21]. Each experiment was performed in triplicate and repeated at least three times. The negative control (using the highest concentration of DMSO, i.e., 0.5) and positive control (praziquantel 2 µM) were included.
Each concentration was tested in five replicates, and experiments were repeated once.

Caenorhabditis elegans = format: in vivo; settings: L4 stage, 24 h
Description: Caenorhabditis elegans wild-type (N2 strain), kindly provided by Dr. Carlos E. Winter (University of São Paulo), was routinely cultured at 22 °C on nematode growth medium (NGM) plates seeded with Escherichia coli (strain OP50) as a food source according to standard protocols.
For the drug assessment, the age-synchronized L1 stage was cultivated on standard NGM plates. When at the L4 stage, approximately 25 nematodes were transferred to each well of a 96-wells NGM plates containing the drug of interest at the desired concentration (10, 25, 50, 100, and 200 μM) along with a positive control (levamisole 10 μM) and a negative control (DMSO 0.5%). Nematodes were kept at 22 °C for 24 h, and their viability was verified microscopically using a Motic AE2000 inverted microscope (Vancouver, Canada) equipped with an ultra-high definition (UHD) camera and with a 48-inch 4K-UHD monitor system (LG Electronics, São Paulo, Brazil)[33].

[1] = In vitro cytotoxicity assay (MTT) on Vero cells; format: cell-based, African green monkey; settings: African green monkey, Vero cells (ATCC CCL-81); Vero cells; MTT assay; 72 h; read-out: Mammalian cells CC50
Description: (§1) The life cycle of S. mansoni (Belo Horizonte strain) is maintained through routine passage through Biomphalaria glabrata snails and Swiss mice at the Research Center on Neglected Diseases (Guarulhos University, SP, Brazil). Both rodents and snails were kept under environmentally controlled conditions (25 °C; humidity of 50%), with free access to food and water. Vero cells were obtained from the American Type Culture Collection (ATCC CCL-81; Manassas, VA, USA). Cells were routinely cultured in Dulbecco’s Modified Eagle Medium (DMEM) supplemented with 5% heat-inactivated fetal bovine serum and antibiotics (100 U/mL penicillin and 100 μg/mL streptomycin) at 37 °C in a humidified atmosphere containing 5% CO2 [17].
(§2) The cytotoxicity of the compounds on the Vero cells was determined by thiazolyl blue tetrazolium bromide (MTT) assay (Sigma-Aldrich) as previously described[21],[24]. […] After 72 h, MTT solution was added to each well and the absorbance at 595 nm was read on a spectrophotometer (Epoch, BioTek Instruments, Winooski, VT, USA).

Vero cells = experiment: In vitro cytotoxicity assay (MTT) on Vero cells; format: cell-based, African green monkey; settings: CC50 on Vero cells divided by EC50 on schistosomes (based on the highest concentration)
Description: as §1, §2

[2] = system: cathepsin B1 from Schistosoma mansoni (SmCB1); set-up: method as in ref 2 (Fonseca et al.); settings: ref 2 (Fonseca et al.), cited from earlier work
[3] = female adult worms, read-out: S. mansoni EC50 Female
[4] = male adult worms, read-out: S. mansoni EC50 Male

## Cc1ccc(/C=N/Nc2ccnc3cc(Cl)ccc23)cc1 [GPQF-8Q10, 7-Chloro-4-[(2E)-2-(4-methylbenzylidene)hydrazinyl]quinoline]
S. mansoni adult worms; 25 µM
  Time to worm mortality: ≤ 24 h
S. mansoni adult worms
  Activity against 49-day-old S. mansoni worms at 50 µM: Active
S. mansoni adult worms; [3]
  EC50: 15.6 µM
S. mansoni adult worms; [4]
  EC50: 13.3 µM
Caenorhabditis elegans; 10 μM
  Survival percentage of C. elegans: 100%
Caenorhabditis elegans; 25 μM
  Survival percentage of C. elegans: 100%
Caenorhabditis elegans; 50 μM
  Survival percentage of C. elegans: 100%
Caenorhabditis elegans; 100 μM
  Survival percentage of C. elegans: 100%
Caenorhabditis elegans; 200 μM
  Survival percentage of C. elegans: 100%
[1]
  CC50 at 72 h: > 200 µM
Vero cells
  SI (selectivity index): > 12.8

## CCc1ccc(/C(C)=N/Nc2ccnc3cc(Cl)ccc23)cc1 [GPQF-8Q19, 7-Chloro-4-{(2E)-2-[1-(4-ethylphenyl)ethylidene]hydrazinyl}quinoline]
S. mansoni adult worms
  Activity against 49-day-old S. mansoni worms at 50 µM: Inactive
other
  melting point: 300 to 304 °C

## O=[N+]([O-])c1ccc(/C=N/Nc2ccnc3cc(Cl)ccc23)o1 [GPQF-8Q6, 7-Chloro-4-{(2E)-2-[(5-nitrofuran-2-yl)methylidene]hydrazinyl}quinoline]
S. mansoni adult worms
  Activity against 49-day-old S. mansoni worms at 50 µM: Inactive

## Oc1ccc(/C=N/Nc2ccnc3cc(Cl)ccc23)c(O)c1 [GPQF-8Q14, 4-{(E)-[2-(7-chloroquinolin-4-yl)hydrazinylidene]methyl}benzene-1,3-diol]
S. mansoni adult worms
  Activity against 49-day-old S. mansoni worms at 50 µM: Inactive

## C/C(=N\Nc1ccnc2cc(Cl)ccc12)c1ccccc1 [GPQF-8Q16, 7-Chloro-4-[(2E)-2-(1-phenylethylidene)hydrazinyl]quinoline]
S. mansoni adult worms
  Activity against 49-day-old S. mansoni worms at 50 µM: Inactive
other
  melting point: 302 to 306 °C

## C/C(=N\Nc1ccnc2cc(Cl)ccc12)c1ccc(O)cc1 [GPQF-8Q17, 4-{(1E)-1-[2-(7-chloroquinolin-4-yl)hydrazinylidene]ethyl}phenol]
S. mansoni adult worms
  Activity against 49-day-old S. mansoni worms at 50 µM: Inactive

## CC/C(C)=N/Nc1ccnc2cc(Cl)ccc12 [GPQF-8Q22, 4-[(2E)-2-(butan-2-ylidene)hydrazinyl]-7-chloroquinoline]
S. mansoni adult worms
  Activity against 49-day-old S. mansoni worms at 50 µM: Inactive
other
  melting point: 71 to 74 °C

## NC(=S)N/N=C/c1ccc[nH]1 [IV]
[2]; unit inferred
  IC50: 6.8 µM

## C/C(=N\Nc1ccnc2cc(Cl)ccc12)c1ccc(C)cc1 [GPQF-8Q18, 7-Chloro-4-{(2E)-2-[1-(4-methylphenyl)ethylidene]hydrazinyl}quinoline]
S. mansoni adult worms
  Activity against 49-day-old S. mansoni worms at 50 µM: Inactive
other
  melting point: 310 °C (dec.)

## C/C(=N\Nc1ccnc2cc(Cl)ccc12)C(C)(C)C [GPQF-8Q25, 7-Chloro-4-[(2E)-2-(3,3-dimethylbutan-2-ylidene)hydrazinyl]quinoline]
S. mansoni adult worms
  Activity against 49-day-old S. mansoni worms at 50 µM: Inactive
other
  melting point: 228 to 232 °C

## O=C(C1CCCCC1)N1CC(=O)N2CCc3ccccc3C2C1 (centres unmarked) [PZQ, praziquantel, reference compound]
S. mansoni adult worms; [3]
  EC50: 1 µM
S. mansoni adult worms; [4]
  EC50: 0.7 µM
[1]
  CC50 at 72 h: > 200 µM
Vero cells
  SI (selectivity index): > 200

## Clc1ccc2c(N/N=C/c3ccc(Cl)c(Cl)c3)ccnc2c1 [GPQF-8Q13, 7-Chloro-4-[(2E)-2-(3,4-dichlorobenzylidene)hydrazinyl]quinoline]
S. mansoni adult worms
  Activity against 49-day-old S. mansoni worms at 50 µM: Inactive
other
  melting point: 320 °C (dec.)

## Fc1ccc(/C=N/Nc2ccnc3cc(Cl)ccc23)cc1 [GPQF-8Q12, 7-Chloro-4-[(2E)-2-(4-fluorobenzylidene)hydrazinyl]quinoline]
other
  melting point: 236 to 241 °C

## Clc1ccc2c(N/N=C/c3ccccc3)ccnc2c1 [GPQF-8Q1, 4-[(2E)-2-benzylidenehydrazinyl]-7-chloroquinoline]
S. mansoni adult worms
  Activity against 49-day-old S. mansoni worms at 50 µM: Inactive
other
  melting point: 220 to 224 °C

## C/C(CCc1ccccc1)=N\Nc1ccnc2cc(Cl)ccc12 [GPQF-8Q21, 7-Chloro-4-[(2E)-2-(4-phenylbutan-2-ylidene)hydrazinyl]quinoline]
S. mansoni adult worms
  Activity against 49-day-old S. mansoni worms at 50 µM: Inactive
other
  melting point: 161 to 166 °C

## O=[N+]([O-])c1ccc(/C=N/Nc2ccnc3cc(Cl)ccc23)cc1 [GPQF-8Q3, 7-Chloro-4-[(2E)-2-(4-nitrobenzylidene)hydrazinyl]quinoline]
S. mansoni adult worms
  Activity against 49-day-old S. mansoni worms at 50 µM: Inactive

## Cc1ccc(/C=N/NC(N)=S)cc1 [II]
[2]
  IC50: 2.5 µM

## NC(=S)N/N=C/c1ccncc1 [V]
[2]; unit inferred
  IC50: 42.4 µM

## COc1cc(/C=N/Nc2ccnc3cc(Cl)ccc23)ccc1O [GPQF-8Q4, 4-{(E)-[2-(7-chloroquinolin-4-yl)hydrazinylidene]methyl}-2-methoxyphenol]
S. mansoni adult worms
  Activity against 49-day-old S. mansoni worms at 50 µM: Inactive

## C/C(=N\Nc1ccnc2cc(Cl)ccc12)c1ccc(Cl)c(Cl)c1 [GPQF-8Q20, 7-Chloro-4-{(2E)-2-[1-(3,4-dichlorophenyl)ethylidene]hydrazinyl}quinoline]
S. mansoni adult worms
  Activity against 49-day-old S. mansoni worms at 50 µM: Inactive
other
  melting point: 294 to 298 °C

## CCC/C(C)=N/Nc1ccnc2cc(Cl)ccc12 [GPQF-8Q23, 7-Chloro-4-[(2E)-2-(pentan-2-ylidene)hydrazinyl]quinoline]
S. mansoni adult worms
  Activity against 49-day-old S. mansoni worms at 50 µM: Inactive
other
  melting point: 250 °C (dec.)

## C/C(=N\Nc1ccnc2cc(Cl)ccc12)c1ccc(Cl)cc1 [GPQF-8Q26, 7-Chloro-4-{(2E)-2-[1-(4-chlorophenyl)ethylidene]hydrazinyl}quinoline]
S. mansoni adult worms
  Activity against 49-day-old S. mansoni worms at 50 µM: Inactive
other
  melting point: 290 to 292 °C

## c1ccc([C@H]2CN3CCSC3=N2)cc1 [LVM, levamisole, reference compound]
Caenorhabditis elegans; 10 μM
  Survival percentage of C. elegans: 0%
